The source made the active and inactive calls. No cut-off for these calls is given here. Peptide text beside a SMILES is read from it. * marks the point of attachment. Biotinyl(3aR,4S,6aS) = O=C1N[C@H]2[C@H](CCCCC(=O)*)SC[C@H]2N1; Biotin = O=C1N[C@H]2[C@H](CS[C@H]2CCCCC(=O)*)N1; Stearoyl = CCCCCCCCCCCCCCCCCC(=O)*
Legend:
[1] = test system: Influenza A virus (A/Wyoming/03/2003(H3N2)); assay: (§1) Binding affinity to Influenza A virus (A/Wyoming/03/2003(H3N2)) H3 hemagglutinin after 2 hrs by avidin-biotin-peroxidase complex method
[2] = test system: Influenza A virus (A/Wyoming/03/2003(H3N2)); assay: Binding affinity to Influenza A virus (A/Wyoming/03/2003(H3N2)) H3 hemagglutinin at 400 uM after 2 hrs by avidin-biotin-peroxidase complex method relative to 7-1 peptide
[3] = test system: Influenza A virus (A/New Caledonia/20/1999(H1N1)); assay: (§2) Binding affinity to Influenza A virus (A/New Caledonia/20/99 (H1N1)) H1 hemagglutinin after 2 hrs by avidin-biotin-peroxidase complex method
[4] = as §2; set-up: species or system Influenza A virus (A/New Caledonia/20/1999(H1N1))
[5] = as §1
[6] = test system: Influenza A virus (A/Wyoming/03/2003(H3N2)); assay: Binding affinity to Influenza A virus (A/Wyoming/03/2003(H3N2)) H3 hemagglutinin at 200 uM after 2 hrs by avidin-biotin-peroxidase complex method in presence of Neu5Ac
[7] = test system: Influenza A virus (A/Wyoming/03/2003(H3N2)); assay: Binding affinity to Influenza A virus (A/Wyoming/03/2003(H3N2)) H3 hemagglutinin after 2 hrs by avidin-biotin-peroxidase complex method in presence of Neu5Ac
[8] = test system: Influenza A virus (A/Wyoming/03/2003(H3N2)); assay: Binding affinity to Influenza A virus (A/Wyoming/03/2003(H3N2)) H3 hemagglutinin after 2 hrs by avidin-biotin-peroxidase complex method in presence of glucose
[9] = Binding affinity to Influenza A virus (A/Aichi/2/68(H3N2)) H3 hemagglutinin after 2 hrs by NMR method; set-up: species or system Influenza A virus (A/Aichi/2/1968(H3N2))
Influenza A virus = assay: Antiviral activity against Influenza A virus (A/Puerto Rico/8/34(H1N1)) infected in MDCK cells assessed as inhibition of plaque formation pretreated with virus for 30 mins followed by host cell infection for 30 mins measured after 2 days by crystal violet staining assay; format: functional, organism-based; conditions: A/Puerto Rico/8/1934(H1N1)
H3N2 subtype = assay: Antiviral activity against Influenza A virus (A/Aichi/2/68(H3N2)) infected in MDCK cells assessed as inhibition of plaque formation pretreated with virus for 30 mins followed by host cell infection for 30 mins measured after 2 days by crystal violet staining assay; format: functional, organism-based; conditions: A/Aichi/2/1968(H3N2)

CC(C)C[C@H](NC(=O)[C@H](C)NC(=O)[C@H](CC(C)C)NC(=O)[C@@H]1CCCN1C(=O)[C@H](Cc1cnc[nH]1)NC(=O)[C@@H](NC(=O)[C@@H](N)CC(C)C)C(C)C)C(=O)N[C@@H](CCCCNC(=O)CCCC[C@@H]1SC[C@H]2NC(=O)N[C@@H]12)C(N)=O (H-LVHPLALK(Biotinyl(3aR,4S,6aS))-NH2)
Activity [1]: Active

CC(C)C[C@H](NC(=O)[C@H](C)NC(=O)[C@H](CC(C)C)NC(=O)[C@@H]1CCCN1C(=O)[C@H](CCCNC(=N)N)NC(=O)[C@H](CCC(N)=O)NC(=O)[C@@H](N)CC(C)C)C(=O)N[C@@H](CCCCNC(=O)CCCC[C@@H]1SC[C@H]2NC(=O)N[C@@H]12)C(N)=O (H-LQRPLALK(Biotinyl(3aR,4S,6aS))-NH2)
Activity [1]: Active

CC(C)C[C@H](NC(=O)CNC(=O)[C@H](CCCNC(=N)N)NC(=O)[C@@H](NC(=O)[C@@H](N)CC(C)C)C(C)C)C(=O)N[C@@H](C)C(=O)N[C@@H](CC(C)C)C(=O)N[C@@H](CCCCNC(=O)CCCC[C@@H]1SC[C@H]2NC(=O)N[C@@H]12)C(N)=O (H-LVRGLALK(Biotinyl(3aR,4S,6aS))-NH2)
Activity [2]: 17%

CC(C)C[C@H](NC(=O)[C@H](C)NC(=O)[C@H](CCCNC(=N)N)NC(=O)[C@@H](NC(=O)[C@@H](N)CC(C)C)C(C)C)C(=O)N[C@@H](C)C(=O)N[C@@H](CC(C)C)C(=O)N[C@@H](CCCCNC(=O)CCCC[C@@H]1SC[C@H]2NC(=O)N[C@@H]12)C(N)=O (H-LVRALALK(Biotinyl(3aR,4S,6aS))-NH2)
Activity [1]: inactive

CC(C)C[C@H](NC(=O)[C@H](C)NC(=O)[C@H](CC(C)C)NC(=O)[C@@H]1CCCN1C(=O)[C@H](CCCNC(=N)N)NC(=O)[C@@H](NC(=O)[C@@H](N)CC(=O)O)C(C)C)C(=O)N[C@@H](CCCCNC(=O)CCCC[C@@H]1SC[C@H]2NC(=O)N[C@@H]12)C(N)=O (H-DVRPLALK(Biotinyl(3aR,4S,6aS))-NH2)
Activity [1]: Active

CC(C)C[C@H](NC(=O)[C@H](C)NC(=O)[C@H](CC(C)C)NC(=O)[C@@H]1CCCN1C(=O)[C@H](C)NC(=O)[C@@H](NC(=O)[C@@H](N)CC(C)C)C(C)C)C(=O)N[C@@H](CCCCNC(=O)CCCC[C@@H]1SC[C@H]2NC(=O)N[C@@H]12)C(N)=O (H-LVAPLALK(Biotinyl(3aR,4S,6aS))-NH2)
Activity [1]: inactive

CC(C)C[C@H](NC(=O)[C@H](C)NC(=O)[C@H](CC(C)C)NC(=O)[C@@H]1CCCN1C(=O)[C@H](CCCNC(=N)N)NC(=O)[C@@H](NC(=O)[C@@H](N)CC(C)C)C(C)C)C(=O)N[C@@H](CCCCNC(=O)CCCC[C@@H]1SC[C@@H]2NC(=O)N[C@@H]21)C(N)=O (H-LVRPLALK(Biotin)-NH2)
Activity [3]: Dose-dependent effect | Kd [4]: 92 µM | Kd [5]: 194 µM | Activity [1]: Dose-dependent effect | Activity [6]: inactive

CC(C)C[C@H](NC(=O)[C@H](C)NC(=O)[C@H](CC(C)C)NC(=O)[C@@H]1CCCN1C(=O)[C@H](CCCNC(=N)N)NC(=O)[C@H](C)NC(=O)[C@@H](N)CC(C)C)C(=O)N[C@@H](CCCCNC(=O)CCCC[C@@H]1SC[C@H]2NC(=O)N[C@@H]12)C(N)=O (H-LARPLALK(Biotinyl(3aR,4S,6aS))-NH2)
Activity [7]: inactive | Activity [8]: Active

CC(C)C[C@H](NC(=O)[C@H](C)NC(=O)[C@H](C)NC(=O)[C@@H]1CCCN1C(=O)[C@H](CCCNC(=N)N)NC(=O)[C@@H](NC(=O)[C@@H](N)CC(C)C)C(C)C)C(=O)N[C@@H](CCCCNC(=O)CCCC[C@@H]1SC[C@H]2NC(=O)N[C@@H]12)C(N)=O (H-LVRPAALK(Biotinyl(3aR,4S,6aS))-NH2)
Activity [7]: inactive | Activity [8]: Active

CC(=O)N[C@H]1[C@H]([C@H](O)[C@H](O)CO)O[C@@](O[C@H]2[C@@H](O)[C@@H](CO)O[C@@H](O[C@H]3[C@H](O)[C@@H](O)[C@H](O)O[C@@H]3CO)[C@@H]2O)(C(=O)O)C[C@@H]1O
Kd [4]: > 200 µM | Kd [5]: > 400 µM | Kd [9]: 3200 µM

CC(C)C[C@H](NC(=O)[C@H](C)NC(=O)[C@H](CC(C)C)NC(=O)[C@@H]1CCCN1C(=O)[C@H](CC(=O)O)NC(=O)[C@@H](NC(=O)[C@@H](N)CC(C)C)C(C)C)C(=O)N[C@@H](CCCCNC(=O)CCCC[C@@H]1SC[C@H]2NC(=O)N[C@@H]12)C(N)=O (H-LVDPLALK(Biotinyl(3aR,4S,6aS))-NH2)
Activity [2]: 19%

CCCCCCCCCCCCCCCCCC(=O)N[C@@H](CC(C)C)C(=O)N[C@H](C(=O)N[C@@H](CCCNC(=N)N)C(=O)N1CCC[C@H]1C(=O)N[C@@H](CC(C)C)C(=O)N[C@@H](C)C(=O)N[C@@H](CC(C)C)C(N)=O)C(C)C (Stearoyl-LVRPLAL-NH2)
IC50 (Influenza A virus): 101 µM | IC50 (H3N2 subtype): 6.4 µM

CC(C)C[C@H](NC(=O)[C@H](CC(=O)O)NC(=O)[C@H](CC(C)C)NC(=O)[C@@H]1CCCN1C(=O)[C@H](CCCNC(=N)N)NC(=O)[C@@H](NC(=O)[C@@H](N)CC(C)C)C(C)C)C(=O)N[C@@H](CCCCNC(=O)CCCC[C@@H]1SC[C@H]2NC(=O)N[C@@H]12)C(N)=O (H-LVRPLDLK(Biotinyl(3aR,4S,6aS))-NH2)
Activity [1]: Active

CC(C)C[C@H](NC(=O)[C@H](C)NC(=O)[C@H](Cc1c[nH]c2ccccc12)NC(=O)[C@@H]1CCCN1C(=O)[C@H](CCCNC(=N)N)NC(=O)[C@@H](NC(=O)[C@@H](N)CC(C)C)C(C)C)C(=O)N[C@@H](CCCCNC(=O)CCCC[C@@H]1SC[C@H]2NC(=O)N[C@@H]12)C(N)=O (H-LVRPWALK(Biotinyl(3aR,4S,6aS))-NH2)
Activity [1]: Active

CC(=O)N[C@H]1[C@H]([C@H](O)[C@H](O)CO)O[C@@](OC[C@H]2O[C@@H](O[C@H]3[C@H](O)[C@@H](O)[C@H](O)O[C@@H]3CO)[C@H](O)[C@@H](O)[C@H]2O)(C(=O)O)C[C@@H]1O
Kd [4]: > 500 µM | Kd [5]: > 500 µM | Kd [9]: 2100 µM

CC(C)C[C@H](NC(=O)[C@@H]1CCCN1C(=O)[C@H](CCCNC(=N)N)NC(=O)[C@@H](NC(=O)[C@@H](N)CC(C)C)C(C)C)C(=O)N[C@@H](C)C(=O)N[C@@H](C)C(=O)N[C@@H](CCCCNC(=O)CCCC[C@@H]1SC[C@H]2NC(=O)N[C@@H]12)C(N)=O (H-LVRPLAAK(Biotinyl(3aR,4S,6aS))-NH2)
Activity [7]: inactive | Activity [8]: Active

CC(C)C[C@H](NC(=O)[C@H](C)NC(=O)[C@H](CC(C)C)NC(=O)[C@H](Cc1cnc[nH]1)NC(=O)[C@H](CCCNC(=N)N)NC(=O)[C@@H](NC(=O)[C@@H](N)CC(C)C)C(C)C)C(=O)N[C@@H](CCCCNC(=O)CCCC[C@@H]1SC[C@H]2NC(=O)N[C@@H]12)C(N)=O (H-LVRHLALK(Biotinyl(3aR,4S,6aS))-NH2)
Activity [1]: Active

CC(C)C[C@H](NC(=O)[C@H](C)NC(=O)[C@H](CC(C)C)NC(=O)[C@@H]1CCCN1C(=O)[C@H](CCCNC(=N)N)NC(=O)[C@@H](NC(=O)[C@H](C)N)C(C)C)C(=O)N[C@@H](CCCCNC(=O)CCCC[C@@H]1SC[C@H]2NC(=O)N[C@@H]12)C(N)=O (H-AVRPLALK(Biotinyl(3aR,4S,6aS))-NH2)
Activity [7]: inactive | Activity [8]: Active
